system: HCV replication; assay: HCV replicon assay (luciferase) in ET (Huh-lucubineo-ET) cell line; assay type: cell-based; settings: Hepatitis C virus, tested at 5 μM; ET replicon cells; luciferase activity measured 48-72 hours later; relative to no compound control
Method: A cell line, ET (Huh-lucubineo-ET) was used for screening of compounds of the present invention for inhibiting HCV replication. The ET cell line was stably transfected with RNA transcripts harboring a I389luc-ubi-neo/NS3-3′/ET; replicon with firefly luciferase-ubiquitin-neomycin phosphotransferase fusion protein and EMCV-IRES driven NS3-5B polyprotein containing the cell culture adaptive mutations (E1202G; T12801; K1846T) (Krieger at al, 2001 and unpublished). The ET cells were grown in DMEM (Dulbeco's Modified Eagle's Medium), supplemented with 10% fetal calf serum, 2 mM Glutamine, Penicillin (100 IU/mL)/Streptomycin (100 μg/mL), 1× nonessential amino acids, and 250 μg/mL G418 (“Geneticin”). They were all available through Life Technologies (Bethesda, Md.). The cells were plated at 0.5-1.0×10^4 cells/well in the 96 well plates and incubated for 24 hrs before adding testing compounds. Then the compounds were added to the cells to achieve a final concentration of 0.1 nM to 50 μM and a final DMSO concentration of 0.5%. Luciferase activity were measured 48-72 hours later by adding a lysis buffer and the substrate (Catalog number Glo-lysis buffer E2661 and Bright-Glo luciferase system E2620 Promega, Madison, Wis.). Cells should not be too confluent during the assay. Percent inhibition of replication was plotted relative to no compound control. Under the same condition, cytotoxicity of the compounds was determined using cell proliferation reagent, WST-1 (Roche, Germany). The compounds showing antiviral activities, but no significant cytotoxicities were chosen to determine EC50 and TC50. For these determinations, a 10 point 2-fold serial dilution for each compound was used, which spans a concentration range of 1000 fold. EC50 and similarly TC50 values were calculated by fitting % inhibition at each concentration to the following equation:
% inhibition=100%/[(IC50/[I])^b+1]
where b is Hill's coefficient.
In some preferred embodiments compounds of Formula I will have a % inhibition of at least 20% when tested at 5 μM. In other embodiments the compounds of Formula I will have a % inhibition of at least 50% when tested at 5 μM.

SMILES	inhibition at 5 µM [%]
O=C(NC1CC1)c1ccc(-c2csc(NC(=O)[C@@H]3CC[C@H](c4ccc(CN5CCOCC5)cc4)N3C(=O)OCc3ccccc3)n2)cc1 [Compound 7045, (2S,5R)-2-[4-(4-Cyclopropylcarbamoyl-phenyl)-thiazol-2-ylcarbamoyl]-5-(4-morpholin-4-ylmethyl-phenyl)-pyrrolidine-1-carboxylic acid benzyl ester]	100
CN(C(=O)[C@@H]1CSC(c2ccncc2)N1C(=O)OCc1ccccc1)c1nc(-c2ccc(C(=O)NC3CC3)cc2)cs1 (stereo partly drawn) [Compound 7106, 4-{[4-(4-Cyclopropylcarbamoyl-phenyl)-thiazol-2-yl]-methyl-carbamoyl}-2-pyridin-4-yl-thiazolidine-3-carboxylic acid benzyl ester]	32.9
O=C(NC1CC1)c1ccc(-c2csc(NC(=O)[C@@H]3CSC(c4ncco4)N3C(=O)OCc3ccccc3)n2)cc1 (mixture of isomers) [Compound 7056, (R)-4-[4-(4-Cyclopropylcarbamoyl-phenyl)-thiazol-2-ylcarbamoyl]-2-oxazol-2-yl-thiazolidine-3-carboxylic acid benzyl ester]	99.9
O=C(NC1CC1)c1ccc(-c2csc(NC(=O)[C@@H]3Cc4ccccc4N3C(=O)OCc3ccccc3)n2)cc1 [Compound 7039, (S)-2-[4-(4-Cyclopropylcarbamoyl-phenyl)-thiazol-2-ylcarbamoyl]-2,3-dihydro-indole-1-carboxylic acid benzyl ester]	100
O=C(NC1CC1)c1ccc(-c2csc(NC(=O)[C@@H]3COC(c4ccncc4)N3C(=O)OCc3ccccc3)n2)cc1 (stereo partly drawn) [Compound 7011, (S)-4-[4-(4-Cyclopropylcarbamoyl-phenyl)-thiazol-2-ylcarbamoyl]-2-pyridin-4-yl-oxazolidine-3-carboxylic acid benzyl ester]	98.8
O=C(NC1CC1)c1ccc(-c2csc(NC(=O)[C@@H]3CSC(C4CCNCC4)N3C(=O)OCc3ccccc3)n2)cc1 (mixture of isomers) [Compound 7042, (R)-4-[4-(4-Cyclopropylcarbamoyl-phenyl)-thiazol-2-ylcarbamoyl]-2-piperidin-4-yl-thiazolidine-3-carboxylic acid benzyl ester]	100
O=C(NC1CCCC1)c1ccc(-c2csc(NC(=O)[C@@H]3CSC(c4ccncc4)N3C(=O)OCc3ccccc3)n2)cc1 (stereo partly drawn) [Compound 7012, 4-[4-(4-Cyclopentylcarbamoyl-phenyl)-thiazol-2-ylcarbamoyl]-2-pyridin-4-yl-thiazolidine-3-carboxylic acid benzyl ester]	98.8
CC(=O)c1ccc(C2SC[C@@H](C(=O)Nc3nc(-c4ccc(C(=O)NC5CC5)cc4)cs3)N2C(=O)OCc2ccccc2)cc1 (mixture of isomers) [Compound 7109, 2-(4-Acetyl-phenyl)-4-[4-(4-cyclopropylcarbamoyl-phenyl)-thiazol-2-ylcarbamoyl]-thiazolidine-3-carboxylic acid benzyl ester]	100
Cc1cccc2[nH]c(Cc3ccc(NC(=O)[C@@H]4CSC(c5ccncc5)N4C(=O)OCc4ccccc4)cc3)nc12 (stereo partly drawn) [Compound 7084, 4-[4-(4-Methyl-1H-benzoimidazol-2-ylmethyl)-phenylcarbamoyl]-2-pyridin-4-yl-thiazolidine-3-carboxylic acid benzyl ester]	14.2
O=C(Cc1cccc(NC(=O)[C@@H]2CSC(c3ccncc3)N2C(=O)OCc2ccccc2)c1)NCc1ccc(Cl)cc1 (stereo in doubt) [Compound 7115, 4-{3-[(4-Chloro-benzylcarbamoyl)-methyl]-phenylcarbamoyl}-2-pyridin-4-yl-thiazolidine-3-carboxylic acid benzyl ester]	98
CC(C)(C)OC(=O)N1C[C@H](c2ccccc2)C[C@H]1C(=O)Nc1nc(-c2ccc(C(=O)NC3CC3)cc2)cs1 [Compound 7038, (2S,4S)-2-[4-(4-Cyclopropylcarbamoyl-phenyl)-thiazol-2-ylcarbamoyl]-4-phenyl-pyrrolidine-1-carboxylic acid tert-butyl ester]	48.4
O=C(NC1CC1)c1ccc(-c2csc(NC(=O)[C@@H]3CSC(c4ccnc(Cl)c4)N3C(=O)OCc3ccccc3)n2)cc1 (mixture of isomers) [Compound 7029, (R)-2-(2-Chloro-pyridin-4-yl)-4-[4-(4-cyclopropylcarbamoyl-phenyl)-thiazol-2-ylcarbamoyl]-thiazolidine-3-carboxylic acid benzyl ester]	99.8
O=C(NC1CC1)c1ccc(-c2csc(NC(=O)[C@@H]3CSC(c4ccccc4F)N3C(=O)OCc3ccccc3)n2)cc1 (mixture of isomers) [Compound 7037, (R)-4-[4-(4-Cyclopropylcarbamoyl-phenyl)-thiazol-2-ylcarbamoyl]-2-(2-fluoro-phenyl)-thiazolidine-3-carboxylic acid benzyl ester]	100
O=C(NC1CC1)c1ccc(-c2csc(NC(=O)[C@@H]3CSC(C4CCCCC4)N3C(=O)OCc3ccccc3)n2)cc1 (mixture of isomers) [Compound 7035, (R)-2-Cyclohexyl-4-[4-(4-cyclopropylcarbamoyl-phenyl)-thiazol-2-ylcarbamoyl]-thiazolidine-3-carboxylic acid benzyl ester]	98.9
O=C(Cc1cccc(NC(=O)[C@@H]2CSC(c3ccncc3)N2C(=O)OCc2ccccc2)c1)Nc1ccccc1 (stereo partly drawn) [Compound 7072, 4-(3-Phenylcarbamoylmethyl-phenylcarbamoyl)-2-pyridin-4-yl-thiazolidine-3-carboxylic acid benzyl ester]	80.8
O=C(NC1CC1)c1ccc(-c2csc(NC(=O)[C@@H]3CSC(c4cc[n+]([O-])cc4)N3C(=O)OCc3ccccc3)n2)cc1 (stereo partly drawn) [Compound 7050, (R)-4-[4-(4-Cyclopropylcarbamoyl-phenyl)-thiazol-2-ylcarbamoyl]-2-(1-oxy-pyridin-4-yl)-thiazolidine-3-carboxylic acid benzyl ester]	100
O=C(NC1CC1)c1ccc(NC(=O)[C@@H]2CSC(C3CCOCC3)N2C(=O)OCc2ccccc2)cc1 (stereo partly drawn) [Compound 7107, 4-(4-Cyclopropylcarbamoyl-phenylcarbamoyl)-2-(tetrahydro-pyran-4-yl)-thiazolidine-3-carboxylic acid benzyl ester]	10
O=C(NCCc1ccccc1)c1ccc(NC(=O)[C@@H]2CSC(c3ccncc3)N2C(=O)OCc2ccccc2)cc1 (stereo in doubt) [Compound 7113, 4-(4-Phenethylcarbamoyl-phenylcarbamoyl)-2-pyridin-4-yl-thiazolidine-3-carboxylic acid benzyl ester]	86.5
O=C(NC1CC1)c1ccc(-c2csc(NC(=O)[C@@H]3Cc4ccccc4CN3C(=O)OCc3ccccc3)n2)cc1 [Compound 7002, (S)-3-[4-(4-Cyclopropylcarbamoyl-phenyl)-thiazol-2-ylcarbamoyl]-3,4-dihydro-1H-isoquinoline-2-carboxylic acid benzyl ester]	97.5
O=C(NC1CC1)c1ccc(-c2csc(NC(=O)C3Cc4ccccc4N3C(=O)OCc3ccccc3)n2)cc1 (stereo not drawn) [Compound 7019, 2-[4-(4-Cyclopropylcarbamoyl-phenyl)-thiazol-2-ylcarbamoyl]-2,3-dihydro-indole-1-carboxylic acid benzyl ester]	98.3
NC(=O)c1ccc(NC(=O)[C@@H]2CSC(c3ccncc3)N2C(=O)OCc2ccccc2)cc1 (stereo partly drawn) [Compound 7134, 4-(4-carbamoyl-phenylcarbamoyl)-2-pyridin-4-yl-thiazolidine-3-carboxylic acid benzyl ester]	13.6
O=C(NC1CC1)c1ccc(-c2csc(NC(=O)[C@@H]3CSC(C4CCOCC4)N3C(=O)C3CC3)n2)cc1 (stereo partly drawn) [Compound 7085, 3-Cyclopropanecarbonyl-2-(tetrahydro-pyran-4-yl)-thiazolidine-4-carboxylic acid [4-(4-cyclopropylcarbamoyl-phenyl)-thiazol-2-yl]-amide]	99.6
CN(C)C(=O)CCCCC1SC[C@@H](C(=O)Nc2nc(-c3ccc(C(=O)NC4CC4)cc3)cs2)N1C(=O)OCc1ccccc1 (mixture of isomers) [Compound 7125, 4-[4-(4-Cyclopropylcarbamoyl-phenyl)-thiazol-2-ylcarbamoyl]-2-(4-dimethylcarbamoyl-butyl)-thiazolidine-3-carboxylic acid benzyl ester]	100
O=C(NC1CC1)c1ccc(-c2csc(NC(=O)[C@@H]3CSC(c4ccccn4)N3C(=O)OCc3ccccc3)n2)cc1 (stereo partly drawn) [Compound 7010, (R)-4-[4-(4-Cyclopropylcarbamoyl-phenyl)-thiazol-2-ylcarbamoyl]-2-pyridin-2-yl-thiazolidine-3-carboxylic acid benzyl ester]	98.1
